The target of assay [1] is pFGFR4 in MDA-MB-453 cells (Homo sapiens (Human), UniProt P22455, Y367C). Nature of the assay: Washout experiment (duration of pFGFR4 inhibition). Format: cell-based. Particulars: 1000-2000 nM for 1 hr, washed, up to 24 hr. The protocol:
The cells were allowed to settle down for 4 hrs and were then maintained in low-serum (0.1% FBS) media overnight.
The following morning, the media was removed and the cells were treated with 1000-2000 nM of test compound in low-serum media for 1 hr. The cells were washed free of test compound (3×) with PBS (Invitrogen). One set of cells was immediately lysed as indicated above as the 0 hr time point. The remaining cells were incubated with the appropriate complete growth media (10-20% FBS) for 1, 2, 4, 8, 16 (in certain circumstances) and 24 hr. DMSO (0.5%) controls were collected at all time points.

The target of assay [2] is FGFR4-WT (Homo sapiens (Human), UniProt P22455). In words: Omnia assay for potency against FGFR4 enzyme. Format: biochemical. Particulars: method a: FGFR4-WT (Invitrogen) 10 nM, ATP 300 uM, Y10-Sox 10 uM. The protocol: A 10× stock solution of FGFR4-WT (PR4380C or P3054), (from Invitrogen, Carlsbad, Calif.) corresponding to method a in Table 10, was prepared as described below. Alternatively, a 10× stock solution of FGFR4-WT (F01-11G), (SignalChem, Richmond, BC) corresponding to method b in Table 10, was prepared as described below. A solution of 1.4×ATP (AS001A) and 5× Tyr-Sox conjugated peptide substrate (KNZ3101) were prepared in 1× kinase reaction buffer consisting of 20 mM Tris, pH 7.5, 5 mM MgCl2, 1 mM EGTA, 5 mM […], 5% glycerol (10× stock, KB002A) and 0.2 mM DTT (DS001A). […] The serially diluted compounds were prepared on a Tecan EVO100. A second addition of 10 μl of Tyr-Sox FGFR4 substrate was added to each well and the kinase reactions were started with the addition of 35 μL of 1.4×ATP. The reactions were monitored every 71 seconds for 240 minutes at λex360/λem485 in a Synergy plate reader from BioTek (Winooski, Vt.). […] Methods:
a) [FGFR4-WT]=10 nM, [ATP]=300 uM, [Y10-Sox]=10 uM (ATP KMapp−300 uM),

In assay [3] the target is pFGFR4 (Huh7 cells) (Homo sapiens (Human), UniProt P22455). In words: FGFR4 signaling (pFGFR4) in Huh7 cells (MSD). The conditions noted are these: read-out: Signaling EC50 (nM) pFGFR4 (Huh). Format: cell-based.
Assay [4] concerns MDA-MB-453 cells. In words: Cell proliferation, MDA-MB-453 (CellTiter Glo). Format: cell-based. The conditions noted are these: 96 hr. How it is done:
(§1) The growth inhibition (GI50) values were determined by Graph Pad Prism.
A general note: ATP-based viability assays read luminescence as a measure of living cells.

For assay [5], the system named is Huh7 cells. Nature of the assay: Cell proliferation, Huh7 (CellTiter Glo). Format: cell-based. The protocol:
as §1

Where [6] appears, read: 120 hr, read-out: Cell Proliferation GI50 (nM) HUH.

pIC50: −log10 of the molar value. Entries after “also recorded” stand apart in the source; their conditions may differ. Where two headings read alike, the source gives them in different places. Bounds are passed on as bounds.

Sequence of pFGFR4 in MDA-MB-453 cells (P22455 22-802 Y367C): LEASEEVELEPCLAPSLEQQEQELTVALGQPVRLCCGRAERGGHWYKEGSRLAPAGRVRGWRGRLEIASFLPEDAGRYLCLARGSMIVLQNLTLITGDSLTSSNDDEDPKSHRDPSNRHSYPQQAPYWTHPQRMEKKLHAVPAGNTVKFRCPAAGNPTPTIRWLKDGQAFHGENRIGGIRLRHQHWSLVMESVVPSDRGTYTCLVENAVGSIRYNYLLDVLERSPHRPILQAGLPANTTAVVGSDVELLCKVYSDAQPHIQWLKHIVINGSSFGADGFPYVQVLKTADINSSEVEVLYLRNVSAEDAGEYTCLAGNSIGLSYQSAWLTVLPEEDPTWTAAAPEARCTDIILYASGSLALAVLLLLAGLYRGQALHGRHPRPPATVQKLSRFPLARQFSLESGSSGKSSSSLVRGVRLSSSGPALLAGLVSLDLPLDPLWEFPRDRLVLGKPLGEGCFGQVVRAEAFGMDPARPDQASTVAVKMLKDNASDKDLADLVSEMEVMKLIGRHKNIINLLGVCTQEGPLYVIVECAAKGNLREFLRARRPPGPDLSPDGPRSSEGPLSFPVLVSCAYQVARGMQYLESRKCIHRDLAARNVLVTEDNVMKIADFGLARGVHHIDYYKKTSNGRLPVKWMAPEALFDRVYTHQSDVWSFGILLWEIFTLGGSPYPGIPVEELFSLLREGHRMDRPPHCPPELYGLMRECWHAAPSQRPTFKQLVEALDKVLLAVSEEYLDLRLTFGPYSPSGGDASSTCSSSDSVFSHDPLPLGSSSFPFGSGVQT
Sequence of pFGFR4 (Huh7 cells) (P22455 22-802): as the sequence (P22455 22-802 Y367C) above, with C346Y counted along it
Sequence of FGFR4-WT (P22455 22-802): as the sequence (P22455 22-802 Y367C) above, with C346Y counted along it

Consider `C=CC(=O)NC1CCCCC1Nc1ncc2c(n1)N(Cc1cscn1)C(=O)N(c1c(Cl)c(OC)cc(OC)c1Cl)C2` (racemic) [Compound I-69], for which the “duration of action against pFGFR4 signalling after washout” value (“duration of action” for short) in assay [1] is reported as “prolonged duration of action; also recorded: prolonged inhibition of autophosphorylation of FGFR4”.

For `C=CC(=O)Nc1ccccc1Nc1ncc2cc(-c3c(Cl)c(OC)cc(OC(F)F)c3Cl)c(=O)n(C)c2n1` [Compound I-289], in assay [2], the pIC50 is more than 7.00. In assay [3], the EC50 is less than 100 nM. Moreover, the figures for the GI50 in assay [4] and in assay [5] (setting [6]) were less than 100 nM and 501 to 999 nM, respectively.

With `C=CC(=O)Nc1ccc(F)c(F)c1Nc1ncc2cc(-c3c(Cl)c(OC)cc(OC)c3Cl)c(=O)n(C)c2n1` [Compound I-285], in assay [2], the pIC50 was more than 7.00. Besides, in assay [3], the EC50 was less than 100 nM. Moreover, the GI50 in assay [4] and in assay [5] (setting [6]) was less than 100 nM throughout.

On to `C=CC(=O)Nc1cc(-c2nnnn2C)ccc1Nc1ncc2cc(-c3c(Cl)c(OC)cc(OC)c3Cl)c(=O)n(C)c2n1` [Compound I-276], for which the pIC50 in assay [2] is more than 7.00. Besides, the EC50 in assay [3] was less than 100 nM. Moreover, the GI50 is less than 100 nM in assay [4] (Homo sapiens) and 101 to 500 nM in assay [5] (Homo sapiens, Huh-7, 120 hr).

Molecule `C=CC(=O)N[C@H]1COC[C@H]1Nc1ncc2cc(-c3c(Cl)c(OC)cc(OC)c3Cl)c(=O)n(C)c2n1` [Compound I-241] gave a GI50 in assay [4] (Homo sapiens) of less than 100 nM.

`C=CC(=O)Nc1cc(N2CCN(CC)CC2)ccc1Nc1ncc2cc(-c3c(Cl)c(OC)cc(OC)c3Cl)c(=O)n(C)c2n1` [Compound I-269]: in assay [2], the pIC50 was more than 7.00. Moreover, the EC50 in assay [3] is less than 100 nM. In addition, the GI50 in assay [4] (Homo sapiens) is less than 100 nM; in assay [5] (Homo sapiens, Huh-7, 120 hr), 101 to 500 nM.

With `CCC(=O)Nc1cccc(CN2C(=O)N(c3c(Cl)c(OC)cc(OC)c3Cl)Cc3cnc(Nc4ccccc4NC(=O)CC)nc32)c1` [Compound I-234], the “duration of action” value in assay [1] was “does not have PDA; also recorded: does not show prolonged duration of action”.

As to `C=CC(=O)N[C@H]1COC[C@H]1Nc1ncc2cc(-c3c(F)c(OC)cc(OC)c3F)c(=O)n(C)c2n1` [Compound I-281], the GI50 is 101 to 500 nM in assay [4] (Homo sapiens) and less than 100 nM in assay [5] (Homo sapiens, Huh-7, 120 hr).

On to `C=CC(=O)Nc1ccccc1Nc1ncc2c(n1)N(Cc1cccc(NC(=O)CC)c1)C(=O)N(c1c(Cl)c(OC)cc(OC)c1Cl)C2` [Compound I-1], for which the “duration of action” value in assay [1] is reported as “has PDA; also recorded: prolonged duration of action”.

Consider `C=CC(=O)N[C@H]1COC[C@H]1Nc1ncc2cc(-c3c(F)c(OC)cc(OC)c3Cl)c(=O)n(C)c2n1` [Compound I-279], for which the GI50 in assay [4] (Homo sapiens) was less than 100 nM; in assay [5] (Homo sapiens, Huh-7, 120 hr), less than 100 nM.

Take `C=CC(=O)N[C@H]1COC[C@H]1Nc1ncc2cc(-c3c(Cl)c(OC)cc(OCC)c3Cl)c(=O)n(C)c2n1` [Compound I-291]: in assay [2], the pIC50 is more than 7.00. The EC50 in assay [3] was less than 100 nM. The GI50 in assay [5] (setting [6]) was less than 100 nM.

Turning to `C=CC(=O)N[C@H]1COC[C@H]1Nc1ncc2cc(-c3cc(OC)cc(OC)c3Cl)c(=O)n(CC3CCN(C(C)=O)C3)c2n1` (stereo partly drawn) [Compound I-308], in assay [2], the negative logarithm of the IC50 (pIC50) was more than 7.00. The EC50 in assay [3] was less than 100 nM. For the same molecule, in assay [5] (setting [6]), the GI50 is 101 to 500 nM.

In the case of `C=CC(=O)N[C@H]1COC[C@H]1Nc1ncc2cc(-c3c(Cl)c(OC)cc(OC)c3Cl)c(=O)n(CCOC)c2n1` [Compound I-295], in assay [2], the pIC50 was more than 7.00. For the same molecule, the EC50 in assay [3] is less than 100 nM. The GI50 in assay [5] (setting [6]) was less than 100 nM.

Turning to `C=CC(=O)Nc1cc(F)c(F)cc1Nc1ncc2cc(-c3c(Cl)c(OC)cc(OC)c3Cl)c(=O)n(C)c2n1` [Compound I-257], in assay [2], the negative logarithm of the IC50 (pIC50) was more than 7.00. Further, the 50% effective concentration (EC50) in assay [3] is less than 100 nM. The molecule also returned a GI50 in assay [5] (Homo sapiens, Huh-7, 120 hr) of 101 to 500 nM.

The term pIC50 denotes −log10 of the IC50, conventionally taken in molar units. The term EC50 denotes the concentration needed to bring the measured effect to its halfway point.

The record behind these values is patent US10618902B2, “Substituted pyrido[2,3-d]pyrimidines as inhibitors of protein kinases” (Celgene CAR LLC, priority 2013, dated 2020).
